Assay results from patent EP4273147A1, “SUBSTITUTED SPIROLACTAMS, SALTS THEREOF AND THEIR USE AS HERBICIDALLY ACTIVE SUBSTANCES” (Bayer Aktiengesellschaft, priority 2022, dated 2023).

How the values were obtained:
[1] = system: LOLRI; test: Herbicidal pre-emergence action (Table A3); type: in vivo, Lolium rigidum; conditions: application rate 320 g/ha; visual grading after ca. 3 weeks
Method in brief: (§1)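 Weed seeds are sown into sandy loam in pots and covered with soil, with two species per pot, one monocot and one dicot.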

[2] = system: SETVI; test: Herbicidal pre-emergence action, section C (Table C10); type: in vivo, Setaria viridis; conditions: visual grading after ca. 3 weeks
[3] = system: STEME; test: Herbicidal pre-emergence action (Table A6); type: in vivo, Stellaria media; conditions: application rate 320 g/ha; visual grading after ca. 3 weeks
Method in brief: as §1

[4] = system: ABUTH; test: Herbicidal pre-emergence action, section C (Table C1); type: in vivo, Abutilon theophrasti; conditions: application rate 320 g/ha; visual grading after ca. 3 weeks
[5] = system: DIGSA; test: Herbicidal pre-emergence action (Table A12); type: in vivo, Digitaria sanguinalis; conditions: visual grading after ca. 3 weeks
Method in brief: as §1

[6] = system: ORYZA; test: Post-emergence effects on crop plants (Table F3); type: in vivo, Oryza sativa; conditions: application rate 320 g/ha, crop plant ORYZA
From the text: (§2) 2 to 3 weeks after sowing, the test plants were sprayed in the single-leaf stage.

[7] = system: GLXMA; test: Post-emergence effects on crop plants (Table F4); type: in vivo, Glycine max; conditions: application rate 80 g/ha, crop plant GLXMA
From the text: as §2

[8] = system: POLCO; test: Herbicidal pre-emergence action, section C (Table C9); type: in vivo, Polygonum convolvulus; conditions: visual grading after ca. 3 weeks
From the text: (§4) Seeds of mono- and dicotyledonous weed plants and crop plants were sown, in plastic or organic planting pots, in sandy loam and covered with soil. The compounds according to the invention, formulated in the form of wettable powders (WP) or as emulsifiable concentrates (EC), were applied to the surface of the covering soil as aqueous suspension or emulsion, with the addition of 0.5% of an additive, at an application rate of 600 1 of water/ha (converted). Following treatment, the pots were placed in a greenhouse and kept under optimum growth conditions for the test plants.

[9] = system: SETVI; test: Herbicidal pre-emergence action (Table A5); type: in vivo, Setaria viridis; conditions: application rate 320 g/ha; visual grading after ca. 3 weeks
Method in brief: as §1

[10] = system: ORYZA; test: Pre-emergence effects on crop plants (Table D3); conditions: crop plant; application rate 80 g/ha; visual grading after ca. 3 weeks
From the text: (§5) Seeds of mono- and dicotyledonous weed plants and crop plants were sown, in plastic or organic planting pots, in sandy loam and covered with soil. The compounds according to the invention, formulated in the form of wettable powders (WP) or as emulsifiable concentrates (EC), were applied to the surface of the covering soil as aqueous suspension or emulsion, with the addition of 0.5% of an additive, at an application rate of 600 1 of water/ha (converted).
(§6) Following treatment, the pots were placed in a greenhouse and kept under optimum growth conditions for the test plants.

[11] = system: POAAN; test: Herbicidal post-emergence action (Table B7); type: in vivo, Poa annua; conditions: application rate 1280 g/ha
Method in brief: (§3)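 Visual rating against untreated plants (0% = as control, 100% = dead) made roughly 3 weeks after application. Weed species were grown in sandy loam pots under greenhouse conditions and sprayed at the one-leaf stage, 2–3 weeks post-sowing.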

[12] = system: TRZAS; test: Pre-emergence effects on crop plants (Table D2); type: in vivo, Triticum aestivum; conditions: crop plant; application rate 80 g/ha; visual grading after ca. 3 weeks
From the text: as §5, §6

[13] = system: TRZAS; test: Post-emergence effects on crop plants (Table F2); type: in vivo, Triticum aestivum; conditions: application rate 320 g/ha, crop plant TRZAS
From the text: as §2

[14] = system: POAAN; test: Herbicidal pre-emergence action (Table A7); type: in vivo, Poa annua; conditions: application rate 320 g/ha; visual grading after ca. 3 weeks
Method in brief: as §1

[15] = system: VERPE; test: Herbicidal pre-emergence action, section C (Table C11); type: in vivo, Veronica persica; conditions: application rate 320 g/ha; visual grading after ca. 3 weeks
[16] = system: VERPE; test: Herbicidal pre-emergence action (Table A11); type: in vivo, Veronica persica; conditions: application rate 1280 g/ha; visual grading after ca. 3 weeks
Method in brief: as §1

[17] = system: ZEAMX; test: Post-emergence effects on crop plants (Table F1); type: in vivo, Zea mays; conditions: application rate 80 g/ha, crop plant ZEAMX
From the text: as §2

[18] = system: VIOTR; test: Herbicidal post-emergence action, section E (Table E10); type: in vivo, Viola tricolor; conditions: application rate 320 g/ha; assessed visually after ca. 3 weeks
From the text: as §2

[19] = system: SETVI; test: Herbicidal post-emergence action (Table B8); type: in vivo, Setaria viridis; conditions: application rate 1280 g/ha
Method in brief: as §3

[20] = system: AMARE; test: Herbicidal pre-emergence action (Table A8); type: in vivo, Amaranthus retroflexus; conditions: application rate 1280 g/ha; visual grading after ca. 3 weeks vs untreated controls (100% = plants have died off, 0% = as control plants)
Method in brief: as §1

[21] = system: LOLRI; test: Herbicidal pre-emergence action, section C (Table C7); type: in vivo, Lolium rigidum; conditions: application rate 320 g/ha; visual grading after ca. 3 weeks
[22] = system: MATIN; test: Herbicidal pre-emergence action (Table A4); type: in vivo, Matricaria inodora; conditions: visual grading after ca. 3 weeks
Method in brief: as §1

[23] = system: DIGSA; test: Herbicidal pre-emergence action, section C (Table C5); type: in vivo, Digitaria sanguinalis; conditions: application rate 320 g/ha; visual grading after ca. 3 weeks
[24] = system: ECHCG; test: Herbicidal pre-emergence action, section C (Table C6); type: in vivo, Echinochloa crus-galli; conditions: application rate 80 g/ha; visual grading after ca. 3 weeks
[25] = system: VIOTR; test: Herbicidal pre-emergence action, section C (Table C12); type: in vivo, Viola tricolor; conditions: application rate 80 g/ha; visual grading after ca. 3 weeks
From the text: as §4

[26] = system: BRSNW; test: Post-emergence effects on crop plants (Table F5); type: in vivo, Brassica napus; conditions: application rate 80 g/ha, crop plant BRSNW
From the text: as §2

[27] = system: ALOMY; test: Herbicidal pre-emergence action (Table A9); type: in vivo, Alopecurus myosuroides; conditions: application rate 1280 g/ha; visual grading after ca. 3 weeks
Method in brief: as §1

[28] = system: ALOMY; test: Herbicidal pre-emergence action, section C (Table C2); type: in vivo, Alopecurus myosuroides; conditions: application rate 320 g/ha; visual grading after ca. 3 weeks
[29] = system: ZEAMX; test: Pre-emergence effects on crop plants (Table D1); type: in vivo, Zea mays; conditions: crop plant, visual grading after ca. 3 weeks
[30] = system: MATIN; test: Herbicidal pre-emergence action, section C (Table C8); type: in vivo, Matricaria inodora; conditions: application rate 320 g/ha; visual grading after ca. 3 weeks
[31] = system: ABUTH; test: Herbicidal post-emergence action (Table B1); type: in vivo, Abutilon theophrasti; conditions: application rate 1280 g/ha; treated at one-leaf stage; rated visually after about 3 weeks vs untreated controls (100% = plants have died, 0% = like control plants)
Procedure: Seeds of mono- and dicotyledonous weed plants were placed in plastic pots in sandy loam soil (doubly sown with in each case one species of mono- or dicotyledonous weed plants per pot), covered with soil and cultivated in a greenhouse under controlled growth conditions. 2 to 3 weeks after sowing, the test plants were treated at the one-leaf stage. […] After the test plants had been kept in the greenhouse under optimum growth conditions for about 3 weeks, the activity of the preparations was rated visually in comparison to untreated controls. For example, 100% activity = the plants have died, 0% activity = like control plants.

[32] = system: ECHCG; test: Herbicidal pre-emergence action (Table A2); type: in vivo, Echinochloa crus-galli; conditions: visual grading after ca. 3 weeks
Method in brief: as §1

[33] = system: ABUTH; test: Herbicidal pre-emergence action (Table A1); type: in vivo, Abutilon theophrasti; conditions: application rate 1280 g/ha; visual grading after ca. 3 weeks vs untreated controls (100% = plants have died off, 0% = as control plants)
Method in brief: as §1

[34] = system: VERPE; test: Herbicidal post-emergence action, section E (Table E9); type: in vivo, Veronica persica; conditions: application rate 320 g/ha; assessed visually after ca. 3 weeks
From the text: as §2

[35] = system: ECHCG; test: Herbicidal post-emergence action (Table B3); type: in vivo, Echinochloa crus-galli; conditions: application rate 1280 g/ha; rated visually after about 3 weeks
Method in brief: as §3

[36] = system: ECHCG; test: Herbicidal post-emergence action, section E (Table E5); type: in vivo, Echinochloa crus-galli; conditions: application rate 320 g/ha; assessed visually after ca. 3 weeks
From the text: as §2

[37] = system: GLXMA; test: Pre-emergence effects on crop plants (Table D4); type: in vivo, Glycine max; conditions: crop plant; application rate 80 g/ha; visual grading after ca. 3 weeks
[38] = system: KCHSC; test: Herbicidal pre-emergence action (Table A10); type: in vivo, Kochia scoparia; conditions: application rate 320 g/ha; visual grading after ca. 3 weeks
Method in brief: as §1

O=C1N(Cc2ccccc2F)CCCC12CCN(Cc1ccccc1F)C2=O (racemic) [I-026]
pre-emergence activity against LOLRI [1]: 100% | pre-emergence activity against SETVI ([2]; application rate 80 g/ha): 100% | pre-emergence activity against STEME [3]: 90% | pre-emergence activity against ABUTH [4]: 80% | pre-emergence activity against DIGSA ([5]; application rate 320 g/ha): 100% | post-emergence activity against ORYZA [6]: 0% | post-emergence activity against GLXMA [7]: 0% | pre-emergence activity against POLCO ([8]; application rate 80 g/ha): 80% | pre-emergence activity against SETVI [9]: 100% | pre-emergence activity against ORYZA [10]: 0% | post-emergence activity against POAAN [11]: 90% | pre-emergence activity against TRZAS [12]: 0% | post-emergence activity against TRZAS [13]: 0% | pre-emergence activity against POAAN [14]: 100% | pre-emergence activity against VERPE [15]: 80% | pre-emergence activity against VERPE [16]: 90% | post-emergence activity against ZEAMX [17]: 0% | post-emergence activity against VIOTR [18]: 80% | post-emergence activity against SETVI [19]: 90% | pre-emergence activity against AMARE [20]: 90% | pre-emergence activity against LOLRI [21]: 100% | pre-emergence activity against MATIN ([22]; application rate 320 g/ha): 90% | pre-emergence activity against DIGSA [23]: 100% | pre-emergence activity against ECHCG [24]: 100% | pre-emergence activity against VIOTR [25]: 90% | post-emergence activity against BRSNW [26]: 0% | pre-emergence activity against ALOMY [27]: 100% | pre-emergence activity against ALOMY [28]: 100% | pre-emergence activity against ZEAMX ([29]; application rate 80 g/ha): 0% | pre-emergence activity against MATIN [30]: 90% | post-emergence activity against ABUTH [31]: 90% | pre-emergence activity against ECHCG ([32]; application rate 320 g/ha): 100% | pre-emergence activity against ABUTH [33]: 90%

O=C1N(Cc2cccc(F)c2F)CCCC12CCN(Cc1c(F)cccc1F)C2=O (racemic) [I-032]
pre-emergence activity against LOLRI [1]: 100% | pre-emergence activity against SETVI ([2]; application rate 320 g/ha): 100% | pre-emergence activity against STEME [3]: 90% | pre-emergence activity against DIGSA ([5]; application rate 1280 g/ha): 100% | post-emergence activity against ORYZA [6]: 0% | pre-emergence activity against POLCO ([8]; application rate 320 g/ha): 80% | pre-emergence activity against SETVI [9]: 100% | pre-emergence activity against ORYZA [10]: 0% | post-emergence activity against POAAN [11]: 90% | post-emergence activity against VERPE [34]: 90% | pre-emergence activity against TRZAS [12]: 0% | post-emergence activity against TRZAS [13]: 0% | post-emergence activity against ECHCG [35]: 90% | pre-emergence activity against POAAN [14]: 100% | pre-emergence activity against VERPE [15]: 80% | post-emergence activity against ECHCG [36]: 80% | pre-emergence activity against VERPE [16]: 90% | post-emergence activity against ZEAMX [17]: 20% | post-emergence activity against SETVI [19]: 90% | pre-emergence activity against AMARE [20]: 90% | pre-emergence activity against LOLRI [21]: 100% | pre-emergence activity against MATIN ([22]; application rate 1280 g/ha): 90% | pre-emergence activity against DIGSA [23]: 100% | pre-emergence activity against ECHCG [24]: 100% | pre-emergence activity against GLXMA [37]: 0% | pre-emergence activity against VIOTR [25]: 90% | post-emergence activity against BRSNW [26]: 0% | pre-emergence activity against ALOMY [27]: 90% | pre-emergence activity against KCHSC [38]: 90% | pre-emergence activity against ALOMY [28]: 90% | pre-emergence activity against ZEAMX ([29]; application rate 320 g/ha): 0% | pre-emergence activity against MATIN [30]: 80% | post-emergence activity against ABUTH [31]: 90% | pre-emergence activity against ECHCG ([32]; application rate 1280 g/ha): 100% | pre-emergence activity against ABUTH [33]: 90%
